The record followed here is patent US20170291905A1, “ARGININE […] INHIBITORS AND USES THEREOF” (Epizyme, Inc., priority 2014, published 2017).

In general, IC50 refers to the concentration needed to halve the response being measured.

The target in this assay is T1, full-length human PRMT1 isoform 1 (GST-tagged) (Homo sapiens, UniProt Q99873).
T1 construct: GST-tagged PRMT1 was eluted with 50 mM Tris, 2 mM glutathione, pH 7.8, dialysed in buffer A and concentrated; made in house; host or cells: High Five insect cells (baculovirus)
T1 sequence (Q99873 with tags, fused parts or gaps): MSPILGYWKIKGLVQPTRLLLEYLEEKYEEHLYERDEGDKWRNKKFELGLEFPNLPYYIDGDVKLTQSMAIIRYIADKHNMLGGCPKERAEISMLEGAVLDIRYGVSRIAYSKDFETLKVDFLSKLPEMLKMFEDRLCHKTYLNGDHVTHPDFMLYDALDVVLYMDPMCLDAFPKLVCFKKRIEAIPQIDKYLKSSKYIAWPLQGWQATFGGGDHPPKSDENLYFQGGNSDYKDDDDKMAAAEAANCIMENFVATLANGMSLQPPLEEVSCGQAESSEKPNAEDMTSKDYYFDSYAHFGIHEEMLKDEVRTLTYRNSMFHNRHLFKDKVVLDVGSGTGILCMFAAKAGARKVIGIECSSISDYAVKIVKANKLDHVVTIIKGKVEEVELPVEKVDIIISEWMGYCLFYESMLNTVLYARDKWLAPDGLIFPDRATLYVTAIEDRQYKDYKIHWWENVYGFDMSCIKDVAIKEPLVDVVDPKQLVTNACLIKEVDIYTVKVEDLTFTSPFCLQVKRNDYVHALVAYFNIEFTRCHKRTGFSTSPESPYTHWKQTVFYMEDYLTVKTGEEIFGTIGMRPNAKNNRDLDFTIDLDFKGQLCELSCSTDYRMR
In words: PRMT1 biochemical assay (3H-SAM Flashplate, histone H4 36-50 peptide). Conditions: 0.5 nM PRMT1, 30 min preincubation, 20 nM peptide. A digest of the protocol: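 GST-PRMT1 (0.5 nM) preincubated 30 min at room temperature with compound in bicine buffer pH 7.6. Reaction then run with 200 nM 3H-SAM plus 1.5 uM SAM and 20 nM biotinylated H4 36-50 peptide, 2% DMSO. Stopped with excess cold SAM, and methylated peptide captured on streptavidin Flashplates for counting; % inhibition versus DMSO and 1 mM SAH controls, 3- or 4-parameter fit.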
`CNCCN(C)Cc1c[nH]nc1[C@H]1CC[C@H](COCC(F)(F)F)CC1` [compound 24, N1,N2-dimethyl-N1-((3-((1r,4r)-4-((2,2,2-trifluoroethoxy)methyl)cyclohexyl)-1H-pyrazol-4-yl)methyl)ethane-1,2-diamine] registered an IC50 of 12.4 nM.
The result for `CNCCN(C)Cc1nnc(C)n1[C@H]1CC[C@@]2(CC1)CC(C)(C)CO2` [compound 71] reads 5100 nM; that for `CNCCN(C)Cc1c[nH]nc1[C@H]1CC[C@@]2(CCN(CCC(C)C)C2=O)CC1` [compound 11, (5r,8r)-2-isopentyl-8-(4-((methyl(2-(methylamino)ethyl)amino)methyl)-1H-pyrazol-3-yl)-2-azaspiro[4.5]decan-1-one], 6.55 nM.
The result for `CNCCN(C)Cc1c[nH]nc1C1CCC(C)(C)[C@H](OCC(C)C)C1` (stereo partly drawn) [compound 20, ({3-[(3R)-4,4-dimethyl-3-(2-methylpropoxy)cyclohexyl]-1H-pyrazol-4-yl}methyl)(methyl)[2-(methylamino)ethyl]amine] reads 11 nM; that for `CNCCN(C)Cc1sc(C)nc1[C@H]1CC[C@@]2(CC1)CC(C)(C)CO2` [compound 78], 23 nM; that for `CNCCN(C)Cc1n[nH]cc1[C@H]1CC[C@@]2(CC1)CC(C)(C)CO2` [compound 115], 11.5 nM.
Next, `CNCCN(C)Cc1c[nH]nc1C1CCC(COCC(C)C)(COCC(C)C)CC1` [compound 6]: 16.7 nM.
